Source: patent publication US10239843B2 (CANCER RESEARCH TECHNOLOGY LIMITED, priority 2014, dated 2019)
pIC50: −log10 of the molar value. Where two headings read alike, the source gives them in different places.

Molecular target: Human Full Length PARG (Homo sapiens (Human), UniProt Q86W56)
Assay: PARG enzyme assay (TR-FRET)
Type: biochemical
[1] = read-out: PARG Biochem IC50 Geomean

Human Full Length PARG, sequence (Q86W56 whole entry): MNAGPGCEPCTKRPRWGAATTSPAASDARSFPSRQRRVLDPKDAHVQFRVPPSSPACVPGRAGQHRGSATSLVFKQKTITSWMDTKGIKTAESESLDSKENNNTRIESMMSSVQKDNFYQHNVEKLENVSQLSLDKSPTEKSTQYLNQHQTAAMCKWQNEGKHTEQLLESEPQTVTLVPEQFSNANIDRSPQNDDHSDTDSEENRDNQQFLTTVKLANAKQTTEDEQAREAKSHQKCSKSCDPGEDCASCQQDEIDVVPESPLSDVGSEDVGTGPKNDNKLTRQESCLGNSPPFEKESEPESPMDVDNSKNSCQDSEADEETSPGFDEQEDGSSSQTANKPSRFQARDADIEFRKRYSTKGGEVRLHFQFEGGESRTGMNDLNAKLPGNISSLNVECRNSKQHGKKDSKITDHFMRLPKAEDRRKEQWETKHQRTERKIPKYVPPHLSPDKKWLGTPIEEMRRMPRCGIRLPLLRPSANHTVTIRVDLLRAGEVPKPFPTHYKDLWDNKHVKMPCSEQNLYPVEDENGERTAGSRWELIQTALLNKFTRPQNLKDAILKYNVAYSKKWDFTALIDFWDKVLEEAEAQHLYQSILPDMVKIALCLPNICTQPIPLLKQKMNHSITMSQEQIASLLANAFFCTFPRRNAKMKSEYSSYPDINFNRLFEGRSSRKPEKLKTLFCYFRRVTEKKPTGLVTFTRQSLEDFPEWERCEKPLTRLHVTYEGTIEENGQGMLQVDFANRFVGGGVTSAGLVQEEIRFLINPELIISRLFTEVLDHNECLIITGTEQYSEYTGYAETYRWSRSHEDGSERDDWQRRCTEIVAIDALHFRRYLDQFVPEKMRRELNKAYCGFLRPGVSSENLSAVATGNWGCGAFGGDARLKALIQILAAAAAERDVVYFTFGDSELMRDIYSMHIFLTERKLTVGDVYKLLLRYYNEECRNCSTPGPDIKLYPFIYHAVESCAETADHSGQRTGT

In the case of `CNc1nn(Cc2cc(C)no2)c(=O)c2cc(S(=O)(=O)NC3(C)CC3)ccc12` [Example 244, 1-(methylamino)-N-(1-methylcyclopropyl)-3-[(3-methylisoxazol-5-yl)methyl]-4-oxo-phthalazine-6-sulfonamide], the pIC50 [1] was 6.18.

Compound `Cc1nnsc1Cn1c(=O)c2cc(S(=O)(=O)NC3(C)CC3)ccc2n(C)c1=O` [Example 191] has a pIC50 [1] of 6.06.

With `Cc1ncoc1Cn1c(=O)c2cc(S(=O)(=O)NC3(C)CC3)ccc2n(C)c1=O` [Example 188] the pIC50 [1] was 5.74.

With `Cc1cc(Cn2cc(Cc3ccc(F)cc3)c3ccc(S(=O)(=O)NC4(C)CC4)cc3c2=O)on1` [Example 322, 4-[(4-Fluorophenyl)methyl]-N-(1-methylcyclopropyl)-2-[(3-methylisoxazol-5-yl)methyl]-1-oxo-isoquinoline-7-sulfonamide] the pIC50 [1] was 5.68.

`Cn1c(=O)n(Cc2cncs2)c(=O)c2cc(S(=O)(=O)NC3(CF)CC3)ccc21` [Example 534, N-[1-(Fluoromethyl)cyclopropyl]-1-methyl-2,4-dioxo-3-(thiazol-5-ylmethyl)quinazoline-6-sulfonamide] gave a pIC50 (read-out: PARG Biochem IC50) of 6.24.

In the case of `Cn1c(=O)c(=O)n(Cc2ccccc2)c2ccc(S(=O)(=O)NC3(C)CC3)cc21` [Example 40, 1-Benzyl-4-methyl-N-(1-methylcyclopropyl)-2,3-dioxo-quinoxaline-6-sulfonamide], the pIC50 [1] was 5.55.

Compound `Cc1cc(Cn2nc(C(=O)NCC3CCN(C)CC3)c3ccc(S(=O)(=O)NC4(C)CC4)cc3c2=O)on1` [Example 333] has a pIC50 [1] of 6.11.

`Cn1c(=O)c2cc(S(=O)(=O)NC3(C)CC3)ccc2n(Cc2ccccc2F)c1=O` [Example 65] was tested, and the pIC50 [1] was 5.84.

For `Cn1c(=O)n(Cc2ccns2)c(=O)c2cc(S(=O)(=O)NC3(C)CC3)ccc21` [Example 510, 3-(Isothiazol-5-ylmethyl)-1-methyl-N-(1-methylcyclopropyl)-2,4-dioxo-quinazoline-6-sulfonamide], the pIC50 (read-out: PARG Biochem IC50) was 5.64.

Compound `CC1(NS(=O)(=O)c2ccc3[nH]c(=O)[nH]c(=O)c3c2)CC1` [Example 1] has a pIC50 [1] of 5.04.

`Cn1c(=O)c2cc(S(=O)(=O)NC3(C)CC3)ccc2n(C)c1=O` [Example 2] was tested, and the pIC50 [1] was 5.32.

For `Cn1c(=O)c2cc(S(=O)(=O)NC3(C)CC3)ccc2n(Cc2cccc(C#N)c2)c1=O` [Example 69], the pIC50 [1] was 5.94.

In the case of `Cn1c(=O)c2cc(S(=O)(=O)NC3(C)CC3)ccc2n(Cc2c(Cl)cccc2Cl)c1=O` [Example 74], the pIC50 [1] was 5.68.

Work on `Cn1c(=O)n(Cc2ccc(C(N)=O)cc2)c(=O)c2cc(S(=O)(=O)NC3(C)CC3)ccc21` [Example 89] yielded a pIC50 [1] of 5.23.

Compound `CC1(NS(=O)(=O)c2ccc3[nH]c(=O)n(CC(N)=O)c(=O)c3c2)CC1` [Example 223, 2-[6-[(1-Methylcyclopropyl)sulfamoyl]-2,4-dioxo-1H-quinazolin-3-yl]acetamide] has a pIC50 [1] of 5.13.

`Cc1cc(Cn2nc(CC3CCC3)c3ccc(S(=O)(=O)NC4(C)CC4)cc3c2=O)on1` [Example 320] gave a pIC50 [1] of 6.17.

`Cn1cnnc1Cn1c(=O)c2cc(S(=O)(=O)NC3(C)CC3)ccc2n(C)c1=O` [Example 499, 1-Methyl-N-(1-methylcyclopropyl)-3-[(4-methyl-1,2,4-triazol-3-yl)methyl]-2,4-dioxo-quinazoline-6-sulfonamide] showed a pIC50 (read-out: PARG Biochem IC50) of 5.61.

`Cc1ccc(Cn2c(=O)n(C)c(=O)c3cc(S(=O)(=O)NC4(C)CC4)ccc32)cc1` [Example 58] was tested, and the pIC50 [1] was 5.80.

In the case of `Cn1c(-c2ccccc2)nc2ccc(S(=O)(=O)NC3(C)CC3)cc2c1=O` [Example 97], the pIC50 [1] was 5.66.

For `Cn1c(=O)n(CC(=O)c2cccs2)c(=O)c2cc(S(=O)(=O)NC3(C)CC3)ccc21` [Example 529, 1-Methyl-N-(1-methylcyclopropyl)-2,4-dioxo-3-[2-oxo-2-(2-thienyl)ethyl]quinazoline-6-sulfonamide], the pIC50 (read-out: PARG Biochem IC50) was 5.98.

`Cn1c(=O)c2cc(S(=O)(=O)NC3(C)CC3)ccc2n(Cc2ccncc2)c1=O` [Example 84] showed a pIC50 [1] of 5.63.

`Cn1c(=O)c(=O)[nH]c2ccc(S(=O)(=O)NC3(C)CC3)cc21` [Example 21, 4-Methyl-N-(1-methylcyclopropyl)-2,3-dioxo-1H-quinoxaline-6-sulfonamide] showed a pIC50 [1] of 5.16.

With `CNc1nn(C)c(=O)c2cc(S(=O)(=O)NC3(C)CC3)ccc12` [Example 234, 3-Methyl-1-(methylamino)-N-(1-methylcyclopropyl)-4-oxo-phthalazine-6-sulfonamide] the pIC50 [1] was 5.70.

In the case of `CCOC(=O)C(F)n1c(=O)n(Cc2cc(C)no2)c(=O)c2cc(S(=O)(=O)NC3(C)CC3)ccc21` (centres unmarked) [Example 335], the pIC50 [1] was 5.98.

Compound `Cn1c(=O)[nH]c(=O)c2cc(S(=O)(=O)NC3(CF)CC3)ccc21` [Example 512, N-[1-(Fluoromethyl)cyclopropyl]-1-methyl-2,4-dioxo-quinazoline-6-sulfonamide] has a pIC50 (read-out: PARG Biochem IC50) of 5.53.

`CC1(NS(=O)(=O)c2ccc3nc(C4CC4)[nH]c(=O)c3c2)CC1` [Example 54] showed a pIC50 [1] of 5.62.

`Cc1cc(Cn2c(=O)n(C3CC3)c(=O)c3cc(S(=O)(=O)NC4(C)CC4)ccc32)n(C)n1` [Example 241] showed a pIC50 [1] of 6.19.

With `Cc1cc(Cn2c(=O)c3cc(S(=O)(=O)NC4(C)CC4)ccc3n(CCN3CCCC3)c2=O)on1` [Example 248] the pIC50 [1] was 6.28.

`Cn1c(=O)c2cc(S(=O)(=O)NC3(C)CC3)ccc2n(CCC2CC2)c1=O` [Example 43] gave a pIC50 [1] of 5.93.

`Cn1c(=O)[nH]c2cc(F)c(S(=O)(=O)NC3(C)CC3)cc2c1=O` [Example 211, 7-Fluoro-3-methyl-N-(1-methylcyclopropyl)-2,4-dioxo-1H-quinazoline-6-sulfonamide] gave a pIC50 [1] of 5.81.

Compound `Cn1c(=O)n(Cc2cnn(CC(N)=O)c2)c(=O)c2cc(S(=O)(=O)NC3(C)CC3)ccc21` [Example 203] has a pIC50 [1] of 6.20.

`CCN(CC)c1ccc(C(=O)Cn2c(=O)c3cc(S(=O)(=O)NC4(C)CC4)ccc3n(C)c2=O)cc1` [Example 110] showed a pIC50 [1] of 5.17.

`Cn1c(=O)n(CC2CC2(F)F)c(=O)c2cc(S(=O)(=O)NC3(C)CC3)ccc21` (centres unmarked) [Example 50] was tested, and the pIC50 [1] was 5.47.

Work on `Cc1cc(Cn2nc(C(=O)N(C)C)c3ccc(S(=O)(=O)NC4(C)CC4)cc3c2=O)on1` [Example 326] yielded a pIC50 [1] of 5.06.

Compound `C#CCn1c(=O)c2cc(S(=O)(=O)NC3(C)CC3)ccc2n(C)c1=O` [Example 47] has a pIC50 [1] of 5.53.

Work on `Cc1cc(Cn2c(=O)[nH]c3ccc(S(=O)(=O)NC4(C)CC4)cc3c2=O)on1` [Example 221, N-(1-methylcyclopropyl)-3-[(3-isoxazol-5-yl)methyl]-2,4-dioxo-1H-quinazoline-6-sulfonamide] yielded a pIC50 [1] of 6.19.

`Cn1ccnc1Cn1c(=O)n(C)c(=O)c2cc(S(=O)(=O)NC3(C)CC3)ccc21` [Example 48] showed a pIC50 [1] of 6.12.

In the case of `Cc1cccc(Cn2c(=O)n(C)c(=O)c3cc(S(=O)(=O)NC4(C)CC4)ccc32)c1` [Example 57], the pIC50 [1] was 5.95.

`Cc1cc(Cn2nc(CC3CCCCC3)c3ccc(S(=O)(=O)NC4(C)CC4)cc3c2=O)on1` [Example 314] showed a pIC50 [1] of 5.86.

With `Cn1c(=O)n(Cc2cncs2)c(=O)c2cc(S(=O)(=O)NC3(C)CC3)ccc21` [Example 147] the pIC50 [1] was 5.92.

In the case of `Cc1cc(Cn2ccc3ccc(S(=O)(=O)NC4(C)CC4)cc3c2=O)on1` [Example 242, N-(1-Methylcyclopropyl)-2-[(3-methylisoxazol-5-yl)methyl]-1-oxo-isoquinoline-7-sulfonamide], the pIC50 [1] was 5.13.
